From patent US20250057828A1, “COMBINATION OF AN A2-ADRENOCEPTOR SUBTYPE C (ALPHA-2C) ANTAGONIST WITH A NOREPINEPHRINE REUPTAKE INHIBITOR FOR THE TREATMENT OF SLEEP APNEA” (priority 2021, published 2025)

Test system: pig model of obstructive sleep apnea (OSA)
Assay: pig model of obstructive sleep apnea (OSA): collapsibility of the upper respiratory tract under negative pressure
Format: in vivo, German Landrace pigs
Text: The therapeutic potential of the combination of an α2-Adrenoceptor subtype C (alpha-2C) antagonists with a muscarinic receptor antagonist according to the present invention in sleep apnea can be assessed preclinically in a pig model of obstructive sleep apnea (OSA).
Using negative pressure, it is possible to induce collapse and thus obstruction of the upper respiratory tract in anaesthetized, spontaneously breathing pigs (Wirth K. J. et al., Sleep 36(5) (2013) pp. 699-708).
German Landrace pigs are used for the model. The pigs are anaesthetized and tracheotomized. Two tracheal cannulas are inserted into the trachea, one into the rostral part and the other into the caudal part of the trachea. Using a connection piece, the rostral cannula is connected to a tube to the negative pressure device and to the distal tracheal cannula. The distal tracheal cannula is additionally connected to a tube with an open end to atmosphere via a connection piece that served for free tracheal breathing, circumventing the upper airway. By appropriate opening and clamping of those tubes breathing can be switched from nasal breathing to breathing through the caudal tracheal cannula, circumventing the upper airway, and the (isolated) upper airway can be connected to the negative pressure device, causing airflow in the inspiratory direction.
At certain points in time, the collapsibility of the upper respiratory tract is tested by having the pig breathe via the caudal cannula and applying negative pressures of −50, −100 and −150 cm water head (cm H2O) to the upper respiratory tract. This causes the upper respiratory tract to collapse, which manifests itself in an interruption of the airflow and a pressure drop in the tube system. This test is conducted prior to the administration of the test substance and at certain intervals after the administration of the test substance. An appropriately effective test substance can prevent this collapse of the respiratory tract in the inspiratory phase.

[1] = 0.01 mg/kg intraduodenal, 0 min
[2] = 0.01 mg/kg intraduodenal, 30 min
[3] = 0.01 mg/kg intraduodenal, 60 min
[4] = 0.01 mg/kg intraduodenal, 90 min
[5] = 0.01 mg/kg intraduodenal, 120 min
[6] = 0.01 mg/kg intraduodenal, 150 min
[7] = 0.01 mg/kg intraduodenal, 180 min
[8] = 0.01 mg/kg intraduodenal, 240 min
[9] = 0.01 mg/kg intraduodenal, 270 min
[10] = 0.01 mg/kg intraduodenal, 300 min
[11] = intravenous bolus 1 mg/kg + infusion 0.275 mg/kg/h for four hours, 0 min
[12] = intravenous bolus 1 mg/kg + infusion 0.275 mg/kg/h for four hours, 10 min
[13] = intravenous bolus 1 mg/kg + infusion 0.275 mg/kg/h for four hours, 30 min
[14] = intravenous bolus 1 mg/kg + infusion 0.275 mg/kg/h for four hours, 60 min
[15] = intravenous bolus 1 mg/kg + infusion 0.275 mg/kg/h for four hours, 120 min
[16] = intravenous bolus 1 mg/kg + infusion 0.275 mg/kg/h for four hours, 180 min
[17] = intravenous bolus 1 mg/kg + infusion 0.275 mg/kg/h for four hours, 240 min
[18] = intravenous bolus 1 mg/kg followed by infusion of 0,275 mg/kg/h for four hours
[19] = R-oxybutynin intravenous bolus 1 mg/kg + infusion 0.275 mg/kg/h for four hours, 0 min
[20] = R-oxybutynin intravenous bolus 1 mg/kg + infusion 0.275 mg/kg/h for four hours, 10 min
[21] = R-oxybutynin intravenous bolus 1 mg/kg + infusion 0.275 mg/kg/h for four hours, 30 min
[22] = R-oxybutynin intravenous bolus 1 mg/kg + infusion 0.275 mg/kg/h for four hours, 60 min
[23] = R-oxybutynin intravenous bolus 1 mg/kg + infusion 0.275 mg/kg/h for four hours, 120 min
[24] = R-oxybutynin intravenous bolus 1 mg/kg + infusion 0.275 mg/kg/h for four hours, 180 min
[25] = R-oxybutynin intravenous bolus 1 mg/kg + infusion 0.275 mg/kg/h for four hours, 240 min

Q: Which “inhibited upper airway collapsibility at all negative pressures of −50, −100 and −150 cm head (cm H2O) in all pigs” value (shortened to “inhibited upper airway collapsibility”) (0.01 mg/kg intraduodenal) does the source give for `C[C@@H]1CCCN(C2CCN(c3ncc(C(=O)NCc4ncc(F)cc4F)s3)CC2)C1` [N-[(3,5-difluoropyridin-2-yl)methyl]-2-[(3R)-3-methyl[1,4′-bipiperidin]-1′-yl]-1,3-thiazole-5-carboxamide] here?
A: at no time point

Q: And the “upper airway collapsibility at the negative pressures of −50 and −100 cm head (cm H2O)” value (0.01 mg/kg intraduodenal, time point 120 min)?
A: inhibited

Q: And the “upper airway collapsibility at the negative pressure of −50 cm head (cm H2O)” value (0.01 mg/kg intraduodenal, time point 150 min)?
A: inhibited

Q: What about the “Percent pigs without collaps −50 cm H2O, %” value [1] of the same compound?
A: 0%

Q: What about the “Percent pigs without collaps −50 cm H2O, %” value [2] of the same compound?
A: 0%

Q: What about the “Percent pigs without collaps −50 cm H2O, %” value [3] of the same compound?
A: 25%

Q: What about the “Percent pigs without collaps −50 cm H2O, %” value [4] of the same compound?
A: 75%

Q: What about the “Percent pigs without collaps −50 cm H2O, %” value [5] of the same compound?
A: 100%

Q: And the “Percent pigs without collaps −50 cm H2O, %” value [6]?
A: 100%

Q: And the “Percent pigs without collaps −50 cm H2O, %” value [7]?
A: 75%

Q: What about the “Percent pigs without collaps −50 cm H2O, %” value [8] of the same compound?
A: 50%

Q: And the “Percent pigs without collaps −50 cm H2O, %” value [9]?
A: 25%

Q: And the “Percent pigs without collaps −50 cm H2O, %” value [10]?
A: 25%

Q: And the “Percent pigs without collaps −100 cm H2O, %” value [1]?
A: 0%

Q: And the “Percent pigs without collaps −100 cm H2O, %” value [2]?
A: 0%

Q: What about the “Percent pigs without collaps −100 cm H2O, %” value [3] of the same compound?
A: 0%

Q: And the “Percent pigs without collaps −100 cm H2O, %” value [4]?
A: 75%

Q: What about the “Percent pigs without collaps −100 cm H2O, %” value [5] of the same compound?
A: 100%

Q: What about the “Percent pigs without collaps −100 cm H2O, %” value [6] of the same compound?
A: 75%

Q: And the “Percent pigs without collaps −100 cm H2O, %” value [7]?
A: 50%

Q: What about the “Percent pigs without collaps −100 cm H2O, %” value [8] of the same compound?
A: 25%

Q: What about the “Percent pigs without collaps −100 cm H2O, %” value [9] of the same compound?
A: 25%

Q: And the “Percent pigs without collaps −100 cm H2O, %” value [10]?
A: 0%

Q: What about the “Percent pigs without collaps −150 cm H2O, %” value [1] of the same compound?
A: 0%

Q: And the “Percent pigs without collaps −150 cm H2O, %” value [2]?
A: 0%

Q: And the “Percent pigs without collaps −150 cm H2O, %” value [3]?
A: 0%

Q: What about the “Percent pigs without collaps −150 cm H2O, %” value [4] of the same compound?
A: 0%

Q: What about the “Percent pigs without collaps −150 cm H2O, %” value [5] of the same compound?
A: 50%

Q: And the “Percent pigs without collaps −150 cm H2O, %” value [6]?
A: 25%

Q: And the “Percent pigs without collaps −150 cm H2O, %” value [7]?
A: 0%

Q: What about the “Percent pigs without collaps −150 cm H2O, %” value [8] of the same compound?
A: 0%

Q: And the “Percent pigs without collaps −150 cm H2O, %” value [9]?
A: 0%

Q: What about the “Percent pigs without collaps −150 cm H2O, %” value [10] of the same compound?
A: 0%

Q: `CCN(CC)CC#CCOC(=O)C(O)(c1ccccc1)C1CCCCC1` (stereo not drawn) [oxybutynin, Oxybutynin] was tested. Which “Percent pigs without collaps −50 cm H2O, %” value [11] did it give?
A: 0%

Q: And the “Percent pigs without collaps −50 cm H2O, %” value [12]?
A: 0%

Q: What about the “Percent pigs without collaps −50 cm H2O, %” value [13] of the same compound?
A: 0%

Q: And the “Percent pigs without collaps −50 cm H2O, %” value [14]?
A: 0%

Q: What about the “Percent pigs without collaps −50 cm H2O, %” value [15] of the same compound?
A: 0%

Q: And the “Percent pigs without collaps −50 cm H2O, %” value [16]?
A: 0%

Q: What about the “Percent pigs without collaps −50 cm H2O, %” value [17] of the same compound?
A: 0%

Q: What about the “Percent pigs without collaps −100 cm H2O, %” value [11] of the same compound?
A: 0%

Q: What about the “Percent pigs without collaps −100 cm H2O, %” value [12] of the same compound?
A: 0%

Q: What about the “Percent pigs without collaps −100 cm H2O, %” value [13] of the same compound?
A: 0%

Q: And the “Percent pigs without collaps −100 cm H2O, %” value [14]?
A: 0%

Q: What about the “Percent pigs without collaps −100 cm H2O, %” value [15] of the same compound?
A: 0%

Q: And the “Percent pigs without collaps −100 cm H2O, %” value [16]?
A: 0%

Q: And the “Percent pigs without collaps −100 cm H2O, %” value [17]?
A: 0%

Q: And the “Percent pigs without collaps −150 cm H2O, %” value [11]?
A: 0%

Q: What about the “Percent pigs without collaps −150 cm H2O, %” value [12] of the same compound?
A: 0%

Q: What about the “Percent pigs without collaps −150 cm H2O, %” value [13] of the same compound?
A: 0%

Q: And the “Percent pigs without collaps −150 cm H2O, %” value [14]?
A: 0%

Q: And the “Percent pigs without collaps −150 cm H2O, %” value [15]?
A: 0%

Q: What about the “Percent pigs without collaps −150 cm H2O, %” value [16] of the same compound?
A: 0%

Q: What about the “Percent pigs without collaps −150 cm H2O, %” value [17] of the same compound?
A: 0%

Q: And the “inhibited upper airway collapsibility” value [18]?
A: at no time

Q: For `CCN(CC)CC#CCOC(=O)[C@](O)(c1ccccc1)C1CCCCC1` [R-oxybutynin, R-Oxybutynin], which “upper airway collapsibility at the negative pressure of −50 cm head (cm H2O)” value (R-Oxybutynin intravenous bolus 1 mg/kg + infusion 0,275 mg/kg/h, time point 60 min) is on record?
A: inhibited

Q: What about the “Percent pigs without collaps −50 cm H2O, %” value [19] of the same compound?
A: 0%

Q: What about the “Percent pigs without collaps −50 cm H2O, %” value [20] of the same compound?
A: 0%

Q: And the “Percent pigs without collaps −50 cm H2O, %” value [21]?
A: 0%

Q: What about the “Percent pigs without collaps −50 cm H2O, %” value [22] of the same compound?
A: 100%

Q: What about the “Percent pigs without collaps −50 cm H2O, %” value [23] of the same compound?
A: 0%

Q: And the “Percent pigs without collaps −50 cm H2O, %” value [24]?
A: 0%

Q: And the “Percent pigs without collaps −50 cm H2O, %” value [25]?
A: 0%

Q: And the “Percent pigs without collaps −100 cm H2O, %” value [19]?
A: 0%

Q: What about the “Percent pigs without collaps −100 cm H2O, %” value [20] of the same compound?
A: 0%

Q: And the “Percent pigs without collaps −100 cm H2O, %” value [21]?
A: 0%

Q: What about the “Percent pigs without collaps −100 cm H2O, %” value [22] of the same compound?
A: 50%

Q: What about the “Percent pigs without collaps −100 cm H2O, %” value [23] of the same compound?
A: 0%

Q: What about the “Percent pigs without collaps −100 cm H2O, %” value [24] of the same compound?
A: 0%

Q: What about the “Percent pigs without collaps −100 cm H2O, %” value [25] of the same compound?
A: 0%

Q: And the “Percent pigs without collaps −150 cm H2O, %” value [19]?
A: 0%

Q: What about the “Percent pigs without collaps −150 cm H2O, %” value [20] of the same compound?
A: 0%

Q: What about the “Percent pigs without collaps −150 cm H2O, %” value [21] of the same compound?
A: 0%

Q: What about the “Percent pigs without collaps −150 cm H2O, %” value [22] of the same compound?
A: 0%

Q: And the “Percent pigs without collaps −150 cm H2O, %” value [23]?
A: 0%

Q: And the “Percent pigs without collaps −150 cm H2O, %” value [24]?
A: 0%

Q: What about the “Percent pigs without collaps −150 cm H2O, %” value [25] of the same compound?
A: 0%

Q: What about the “inhibited upper airway collapsibility” value [18] of the same compound?
A: at no time
